Test results: ChEMBL document CHEMBL2390907, “Juglone, isolated from Juglans mandshurica Maxim, induces apoptosis via down-regulation of AR expression in human prostate cancer LNCaP cells” (Bioorg Med Chem Lett, 2013)
The source made the active and inactive calls. No cut-off for these calls is given here.

Columns and labels:
[1] = system: LNCaP; test: Induction of apoptosis in human LNCAP cells assessed as decrease of DHT-induced prostate-specific antigen mRNA expression at 15 uM treated 2 hrs before DHT challenge measured after 24 hrs by RT-PCR analysis; assay type: functional, cell-based
[2] = system: LNCaP; test: Induction of apoptosis in human LNCAP cells assessed as decrease of DHT-induced androgen receptor mRNA expression at 15 uM treated 2 hrs before DHT challenge measured after 24 hrs by RT-PCR analysis; assay type: functional, cell-based
[3] = system: LNCaP; test: Induction of apoptosis in human LNCAP cells assessed as decrease of prostate-specific antigen protein expression at 5 uM after 24 hrs by Western blot analysis; assay type: functional, cell-based
[4] = system: LNCaP; test: Induction of apoptosis in human LNCAP cells assessed as decrease of androgen receptor protein expression at 5 uM after 24 hrs by Western blot analysis; assay type: functional, cell-based
[5] = system: LNCaP; test: Induction of apoptosis in human LNCAP cells assessed as decrease of prostate-specific antigen protein expression after 24 hrs by Western blot analysis; assay type: functional, cell-based
[6] = system: LNCaP; test: Induction of apoptosis in human LNCAP cells assessed as decrease of androgen receptor protein expression after 24 hrs by Western blot analysis; assay type: functional, cell-based
[7] = system: LNCaP; test: Induction of apoptosis in human LNCAP cells assessed as decrease of mitochondria membrane potential after 24 hrs using rhodamine 123 dye by flow cytometry; assay type: functional, cell-based
[8] = system: LNCaP; test: Induction of apoptosis in human LNCAP cells assessed as activation of caspase-3 and 9 at 15 uM after 24 hrs by Western blot analysis relative to control; assay type: functional
[9] = system: LNCaP; test: Induction of apoptosis in human LNCAP cells assessed as cleavage of precursor of caspase-3 and 9 after 24 hrs by Western blot analysis; assay type: functional, cell-based
[10] = system: LNCaP; test: Induction of apoptosis in human LNCAP cells assessed as increase of annexin V-FITC/PI staining positive cells after 24 hrs by flow cytometry; assay type: functional, cell-based
[11] = system: LNCaP; test: Induction of apoptosis in human LNCAP cells assessed as membrane blebbing at 5 to 15 uM after 24 hrs using Hoechst 33342 staining by fluorescence microscopic analysis; assay type: functional, cell-based
[12] = system: LNCaP; test: Induction of apoptosis in human LNCAP cells assessed as cell shrinkage at 5 to 15 uM after 24 hrs using Hoechst 33342 staining by fluorescence microscopic analysis; assay type: functional, cell-based
[13] = system: LNCaP; test: Induction of apoptosis in human LNCAP cells assessed as nuclear condensation at 5 to 15 uM after 24 hrs using Hoechst 33342 staining by fluorescence microscopic analysis; assay type: functional, cell-based
[14] = system: LNCaP; test: Antiproliferative activity against human LNCAP cells after 24 hrs by MTT assay; assay type: functional, cell-based

SMILES: O=C1C=CC(=O)c2c(O)cccc21 [JUGLONE]
- Activity [1]: Active
- Activity [2]: Active
- Activity [3]: inactive
- Activity [4]: inactive
- Activity [5]: Dose-dependent effect
- Activity [6]: Dose-dependent effect
- Activity [7]: Dose-dependent effect
- fold change (FC) [8]: >2.5
- Activity [9]: Dose-dependent effect
- Activity [10]: Dose-dependent effect
- Activity [11]: Active
- Activity [12]: Active
- Activity [13]: Active
- Activity [14]: Dose-dependent effect
- IC50 [14]: 13.8 µM
